# “Also recorded” adds a separate entry of the source.
# System: C2C12 cells
# Assay: High-throughput screen for small molecules that augment BMP-2 induced ALP expression (osteoblast conversion)
# Assay type: cell-based, mouse
# Details: DM + BMP-2 + compound at target concentration 1 μM, 72 h, duplicate; ImageJ, Digilab and visual inspection analyses
# Procedure: The level of alkaline phosphatase (ALP) activity measured colorimetrically was scored in all wells using three criteria (see Exemplary materials and methods in the Examples section). […] ALP intensity images were acquired using a Digilab Plate reader. Images were analyzed using three independent criteria and considered for secondary screening and validation in the MC3T3 pre-osteoblast cell line Enhancement of the mRNA and protein levels of the mature osteoblast markers RunX2 and osterix was tested. *Plates were run in duplicate.
# C2C12 cells were plated at 750 cells per well in a 384-square well plate and were allowed to adhere for 24 h in growth media (GM). […] After 72 h, cells were fixed and stained for alkaline phosphatase (ALP) and DAPI for nuclei visualization. […] It was next sought to screen a larger set of small molecules from more diverse backgrounds to identify enhancement of osteoblast conversion.
# Cell culture: C2C12. The C2C12 myoblast cell line (ATCC) was maintained in growth medium (GM) that consisted of high glucose DMEM (Gibco), 10% fetal bovine serum (Gibco), and 1% pen/strep (Invitrogen). […] Negative controls were switched to DM but only received 20 mM acetic acid. Cells were passaged approximately every two days and were kept below 70% con-fluency, as per manufacturer's instructions. MC3T3-E1. MC3T3-E1 subclone 4 pre-osteoblast cells (ATCC #CRL-2593) were maintained in minimum essential medium, alpha modification (Invitrogen #A10490-01) containing 10% FBS and 1% penicillin/streptomycin. […] All cell lines used were maintained in a 37° C. incubator at 5% CO2.
# 384-square well plates (BD) were used for primary screening. PBS was added to the outermost wells to reduce edge effects. In each plate, 40 wells were used as positive controls, 28 wells were used as negative controls, and the center 240 wells were used for compound testing. All plates were screened in duplicate. The inner 308 wells received 750 cells per well and were allowed to adhere in GM for 24 h. GM was then removed, wells were washed once with PBS, and DM was added to the inner 308 wells. Negative control wells received DM. […] DMSO was used as the vehicle for compound addition in this study. DMSO was also added to positive and negative control wells in equimolar amounts.
# Cells were initially fixed with a fixative solution that consisted of a 3:10:26 ratio mixture of 37% formaldehyde: citrate: acetone. Colorimetric detection of osteoblasts was achieved using the alkaline phosphatase (ALP) kit obtained from Sigma-Aldrich (Catalog #86C). Cell number was determined based on nuclei staining with DAPI nucleic acid stain as per manufacturer's instructions (Invitrogen).
# Well images identifying ALP+ cells were acquired using a MIAS-2 plate reader, as per manufacturer's instructions (Digilab, Holliston, Mass.).
# Acquired images were assessed using three different search strategies (ImageJ software, Digilab software, and systematic scanning by eye); each having different sensitivities and specificities with regard to the assay.
# Well images were opened with the image software platform ImageJ. Images were normalized on a per plate basis and, since ALP positive cells become darker in a gray scale image, the image darkness was assessed. Images were analyzed using an Area Fraction method whereby a minimum pixel darkness threshold was applied for all image wells. All pixels that were as dark or darker than the threshold applied were converted to black. […] The binary image was then assessed to see percentage of pixels of the image that were black (i.e. Area Fraction). Average Area Fraction from duplicate compound wells was divided by average duplicate nuclei count (as measured by DAPI count in ImageJ) to get Area Fraction on a per-cell basis. This ratio (Area Fraction: Nuclei count) was then compared to positive control wells.
# Well images were analyzed using eaZYX Image Analyzer software (Digilab, Holliston, Mass.).
row,Compound,enhancement of BMP-2 induced ALP expression (screen hit)
1,C=C(c1ccc(C(=O)O)cc1)c1cc2c(cc1C)C(C)(C)CCC2(C)C [bexarotene],identified in all three analyses
2,"CCCCC[C@H](O)CC[C@H]1[C@H](O)CC(=O)[C@@H]1CCCCCCC(=O)O [13, 14-Dihydro-prostaglandin E1]",enhanced ALP expression
3,COc1c(C)c2c(c(O)c1C/C=C(\C)CCC(=O)OCCN1CCOCC1)C(=O)OC2 [mycophenolate mofetil],identified in all three analyses
4,O=C1NC(=O)C(c2ccccc2)(c2ccccc2)N1 [phenytoin],identified in all three analyses
5,COC(=O)C1=C(C)NC(C)=C(C(=O)OCCSc2ccccc2)C1C (stereo not drawn) [PCA 4248],identified in all three analyses
6,CCCCCCCCCCCCCCC[C@@H](O)[C@H](CO)NC(C)=O [C2 dihydroceramide],identified in all three analyses
7,CC[C@@H]1/C=C(\C)C[C@H](C)C[C@H](OC)[C@H]2O[C@@](O)(C(=O)C(=O)N3CCCC[C@H]3C(=O)O[C@H](/C(C)=C/[C@@H]3CC[C@@H](O)[C@H](OC)C3)[C@H](C)[C@@H](O)CC1=O)[C@H](C)C[C@@H]2OC [FK-520],also identified but was not among the top hits
8,CCCCC[C@H](O)/C=C/C1=C(C/C=C\CCCC(=O)O)C(=O)CC1 [prostaglandin B2],identified in all three analyses
9,C=C[C@H]1C[N@@]2CC[C@H]1C[C@H]2[C@H](O)c1ccnc2ccc(OC)cc12 [quinine],identified in all three analyses
10,Oc1ccc(C=Cc2cc(O)cc(O)c2)cc1 [resveratrol],notable hits among the top 45 compounds
11,CCCCC[C@H](O)/C=C/[C@H]1[C@H](O)CC(=O)[C@@H]1CCCCCCC(=O)O [prostaglandin E1],identified in all three analyses; also recorded: enhanced ALP expression
12,CCCCC[C@H](O)/C=C/C1=C(CCCCCCC(=O)O)C(=O)CC1 [prostaglandin B1],enhanced ALP expression
13,COc1c(C)c2c(c(O)c1C/C=C(\C)CCC(=O)O)C(=O)OC2 [mycophenolic acid],identified in all three analyses
14,CCCCC[C@H](O)/C=C/[C@H]1[C@H](O)CC(=O)[C@@H]1C/C=C\CCCC(=O)O [prostaglandin E2],enhanced ALP expression
15,CC1=C(/C=C/C(C)=C/C=C/C(C)=C\C(=O)O)C(C)(C)CCC1 [13-cis retinoic acid],identified in all three analyses
16,C/C(=C\c1ccc(C(=O)O)cc1)c1ccc2c(c1)C(C)(C)CCC2(C)C [TTNPB],identified in all three analyses

# System: MC3T3 cells
# Assay: TGFβ1 mediated inhibition of osteoblast differentiation, qRT-PCR of Runx2, Osx and Smad 7
# Assay type: cell-based, mouse
# Details: TGFβ1 added to MC3T3 cells
# Procedure: MC3T3 cells were treated with media containing 1 ng/mL of TGFβ1 for 24 h and then the media were replaced with BMP-2 or BMP-2 with 100 ng/mL rapamycin. RNA was collected 24 h afterwards and analyzed by qRT-PCR and the ΔΔCT method. […] Shown are representative results (average of duplicates) of at least three independent experiments.
# Total RNA was extracted by the TRIzol method as recommended by the manufacturer (Invitrogen). Isolated RNA was cleaned up using the Rneasy Kit (Qiagen) and 500 ng of RNA was reverse-transcribed using the High Capacity cDNA Synthesis Kit (Applied Biosystems #4368813). Taqman expression assays were used for detection. The expression of 18S (Applied Biosystems #4319413E) was used for normalization of gene expression values. Real-time primers Runx2, Sp7 (Osx), Bglap1 (Ocn) and Smad 7 were obtained from Applied Biosystems (Mm00501580_ml, Mm00504574_ml, Mm03413826_ml and Mm00484742_ml respectively). Quantification was determined using the ΔΔCT method and normalized to the untreated sample.
row,Compound,"Runx2 and Osx mRNA, basal levels"
1,"TGFβ1: transforming growth factor (TGF)-β1, anti-inflammatory cytokine used as antagonist of osteoblast differentiation",reduces basal levels

# Same assay, conditions: factor alone
row,Compound,Smad-7 levels
1,"TGFβ1: transforming growth factor (TGF)-β1, anti-inflammatory cytokine used as antagonist of osteoblast differentiation",no apparent affect

# — patent US20150285789A1, “ASSAYS, SYSTEMS, AND METHODS FOR OBTAINING PERSONALIZED ANABOLIC PROFILES” (BOSTON MEDICAL CENTER CORPORATION, priority 2012, published 2015)
